Values of other authors, collected in patent publication US4199515A (priority 1978, dated 1980).

Tested on: gram-positive bacteria
Settings: background statement

## CO[C@@H]1[C@H](C)[C@H]([C@]2(C)CC[C@H]([C@]3(C)CC[C@]4(C[C@H](OC)[C@@H](C)[C@@H]([C@@H](C)[C@H]5O[C@@](O)([C@H](C)C(=O)O)[C@H](C)[C@@H](OC)[C@H]5C)O4)O3)O2)O[C@H]1[C@H]1O[C@](C)(O)[C@H](C)[C@@H](OC)[C@@H]1C [Lonomycin]
  activity to gram positive bacteria: activity to gram positive bacteria
